In one series the test system is breast cancer. Briefly: Treatment of patients with breast cancer. The series is classed as in vivo, human. Particulars: oral, 100 mg/square meter per day.
The next series is described as follows: Water solubility. The note with it: no data shown. The series is classed as physicochemical.
For series [1], the system named is advanced head and neck cancer. Briefly: Treatment of patients with advanced head and neck cancer. Format: in vivo, human. Particulars: oral, 100 mg/square meter per day. The text has this:
Current systemic chemotherapy regimens are unable to prolong survival of patients with advanced head and neck cancer.

The next series has as its system RXRs α, β, or γ. Nature of the series: Inhibition of 3H-9-cis retinoic acid binding to RXRs. Also on record: species or system mouse. Particulars: data not shown. The text has this: See Levin, A. A., et al (29).
Series [2] has as its system aging or photodamaged skin. Nature of the series: Treatment of patients with aging or photodamaged skin. Format: in vivo, human. Particulars: oral 100 mg/square meter per day or topical 10 mg per square inch per day, 4 to 8 months.
In another series the test system is deep (cystic) acne. Nature of the series: Treatment of patients with deep (cystic) acne. The note with it: oral, 100 mg/square meter per day. Format: in vivo, human. An excerpt:
A very prolonged remission, and potentially permanent cure can be obtained.

The next series relates to laminin B1. Briefly: Laminin B1 gene expression in F9 stem cells by Northern blot. Format: cell-based. Particulars: Mus musculus, F9, 72 h, read-out: Laminin B1 expression induction. The text has this: Teratocarcinoma stem cells can be induced to differentiate in monolayer culture by retinoic acid over a 3-4 day period into nonmalignant endoderm cells resembling the extraembryonic endoderm of the mouse blastocyst as described in Gudas, L. J., et al (27). The F9 teratocarcinoma stem cell line is used as a model tumor cell differentiation system because F9 stem cells share similar biochemical, immunological and morphological characteristics with early mouse embryonic stem cells and additionally, large numbers of cells can be cultured and experimentally manipulated. The expression of several homeobox genes including Hoxa-1 is induced by RA in mouse teratocarcinoma cell lines as described in LaRosa, G. J., et al (34) and LaRosa, G. J., et al (35). […] See LaRosa, G. L, et al (34). Other genes such as laminin B1 are activated subsequent to the activation of Hox 1.6 by retinoic acid as described in Vasios, G. W., et al (36).

Another series deals with T1, RAR-γ (Mus musculus, UniProt P18911).
T1 sequence (P18911 1-458): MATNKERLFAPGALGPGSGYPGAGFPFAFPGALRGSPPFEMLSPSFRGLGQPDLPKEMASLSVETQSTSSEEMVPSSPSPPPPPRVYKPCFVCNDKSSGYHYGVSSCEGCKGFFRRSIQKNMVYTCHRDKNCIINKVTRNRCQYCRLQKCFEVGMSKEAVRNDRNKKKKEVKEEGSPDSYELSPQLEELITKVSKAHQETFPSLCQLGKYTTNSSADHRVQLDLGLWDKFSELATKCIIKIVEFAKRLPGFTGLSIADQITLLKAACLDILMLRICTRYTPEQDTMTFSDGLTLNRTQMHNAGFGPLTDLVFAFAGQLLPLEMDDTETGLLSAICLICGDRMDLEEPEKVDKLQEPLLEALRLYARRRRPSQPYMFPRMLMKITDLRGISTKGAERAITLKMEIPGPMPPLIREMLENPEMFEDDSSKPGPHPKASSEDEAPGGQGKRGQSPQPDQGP
Briefly: Competitive binding of 3H-all-trans-retinoic acid to RAR-γ.

Another series deals with psoriatic arthritis. Nature of the series: Treatment of patients with psoriatic arthritis. The series is classed as in vivo, human. The note with it: oral, 50 mg/square meter per day.

Protocol for RAR-γ: Retinoids were assayed for their ability to bind members of the family of the retinoic acid receptors, the RARs, as follows:
COS-1 cells were transfected by DEAE-dextran with pSG5 expression vectors containing cDNAs for mouse RARs α, β, or γ or RXRs α, β, or γ. […] Nucleosol or cytosol fractions were prepared as described in Nervi, C., et al (30) and Nervi, C., et al (31) and stored at -70° C. until use. Aliquots of nucleosol or cytosol were incubated in nuclei lysis buffer as described in Nervi, C., et al (30) with tritiated ligands for 4 h at 4° C. […] For competitive binding assays, the incubations were performed with increasing concentrations of unlabeled competing ligand and a fixed concentration of the radioligand (10 nM ^3 H-retinoic acid). In saturation kinetic studies, incubations were performed in the presence of increasing concentrations of the indicated radioligand. For all binding assays, bound was separated from free radioactivity as described in Levin, A. A., et al (29).

`CC1=C(/C=C/C(C)=C/C=C/C(C)=C/CO)C(C)(C)CCC1=O` [4-oxo-retinol, all-trans-4-oxo-retinol]: the “tumor burden, breast cancer” value in the series on breast cancer was “reduced tumor burden”. The “water solubility compared with all-trans-retinoic acid” value in “Water solubility” was “more water soluble”. In [1], the “tumor burden, head and neck cancer” value was “reduced tumor burden”. The “survival beyond the median” value in series [1] (and/or reduced tumor burden) was 4-6 months. For the same compound, the “inhibition of 3H-9-cis retinoic acid binding to RXRs” value in the series with RXRs α, β, or γ was “Neither the 4-hydroxyretinol nor the 4-oxo-retinol inhibited”. Moreover, the “wrinkles, smoothness, pigmented areas of skin” value in [2] was “fewer and reduced depth of wrinkles, increased smoothness of the skin, and a reduction in pigmented areas of the skin”. In addition, the “mean reduction in lesion counts” value in the series on deep (cystic) acne (end of 3 to 6 months) was “greater than 85%”. Also, the acne clearance entry in the series with deep (cystic) acne (after discontinuation) is “in some cases complete clearance occurs”. Moreover, the fold induction at 1 µM with laminin B1 was found to be 7. The IC50 (usually the midpoint of a concentration-inhibition curve) on RAR-γ amounted to 3.2 ± 0.52 µM. On RAR-γ (relative to RAR-α and RAR-β, 240 min), the “inhibition of 3H-retinoic acid binding to RAR-γ, fold weaker than RAR-α and RAR-β” value came to 10 fold. Further, in the series on psoriatic arthritis, the psoriatic arthritis symptoms result was “fewer tender joints and a decreased duration of morning stiffness”.

(Values after patent US5962534A, “Regulating gene expression using retinoids with CH2 OH or related groups at the side chain terminal position” (Cornell Research Foundation, Inc., priority 1997, dated 1999).)
